Among the data in ChEMBL document CHEMBL1135760, “Anilinoquinazoline inhibitors of fructose 1,6-bisphosphatase bind at a novel allosteric site: synthesis, in vitro characterization, and X-ray crystallography” (J Med Chem, 2002) are inhibition and IC50 values, retold here.

Each structure is given as a SMILES string. pIC50: −log10 of the molar value. Some results are limits rather than exact numbers.

The target of the first assay is T1, Epidermal growth factor receptor (Homo sapiens, UniProt P00533). The assay can be described thus: (§1) Inhibition of (EGFR) epidermal growth factor receptor tyrosine kinase. The settings on record: concentration not given here.
T1 sequence (P00533 whole entry): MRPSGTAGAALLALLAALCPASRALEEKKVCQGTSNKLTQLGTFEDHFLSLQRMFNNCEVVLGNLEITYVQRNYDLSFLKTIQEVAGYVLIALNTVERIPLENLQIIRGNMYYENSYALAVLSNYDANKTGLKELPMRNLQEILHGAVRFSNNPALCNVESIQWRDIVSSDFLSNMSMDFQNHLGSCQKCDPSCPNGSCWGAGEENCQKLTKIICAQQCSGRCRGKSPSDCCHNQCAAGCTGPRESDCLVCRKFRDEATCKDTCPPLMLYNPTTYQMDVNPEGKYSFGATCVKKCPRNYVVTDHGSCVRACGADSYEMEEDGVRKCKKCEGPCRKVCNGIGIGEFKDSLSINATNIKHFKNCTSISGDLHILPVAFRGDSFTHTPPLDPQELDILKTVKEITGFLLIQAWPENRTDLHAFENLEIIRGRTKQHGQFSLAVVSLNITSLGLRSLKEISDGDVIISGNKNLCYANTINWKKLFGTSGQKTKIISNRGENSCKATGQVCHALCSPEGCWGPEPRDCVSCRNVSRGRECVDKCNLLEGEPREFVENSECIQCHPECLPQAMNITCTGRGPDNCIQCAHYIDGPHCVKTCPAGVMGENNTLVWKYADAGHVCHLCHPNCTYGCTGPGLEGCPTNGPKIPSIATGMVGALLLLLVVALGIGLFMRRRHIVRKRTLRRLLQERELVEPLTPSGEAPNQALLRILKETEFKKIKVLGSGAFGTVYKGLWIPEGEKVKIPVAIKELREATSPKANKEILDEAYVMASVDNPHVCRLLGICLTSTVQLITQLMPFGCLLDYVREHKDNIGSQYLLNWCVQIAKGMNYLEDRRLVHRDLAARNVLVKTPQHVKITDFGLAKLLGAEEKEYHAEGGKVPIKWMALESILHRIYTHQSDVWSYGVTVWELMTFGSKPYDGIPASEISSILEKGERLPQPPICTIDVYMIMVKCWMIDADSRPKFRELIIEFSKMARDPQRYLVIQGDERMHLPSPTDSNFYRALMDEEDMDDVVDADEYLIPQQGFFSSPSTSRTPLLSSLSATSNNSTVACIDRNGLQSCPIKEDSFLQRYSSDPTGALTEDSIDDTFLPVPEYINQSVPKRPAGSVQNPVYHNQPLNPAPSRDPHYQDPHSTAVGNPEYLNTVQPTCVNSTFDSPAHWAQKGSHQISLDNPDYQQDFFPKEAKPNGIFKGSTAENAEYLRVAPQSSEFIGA
What is called inhibition is the share of the control response that was lost under treatment. Higher therefore signals a response far below the control. `CCOc1cc2nc(CCl)nc(Nc3cccc(-c4csc(C)n4)c3)c2cc1OCC` displayed an inhibition of 10%.
The same measure, in the same setting: next, `CCOc1cc2nc(CCCl)nc(Nc3cccc(-c4csc(C)n4)c3)c2cc1OCC`: 11%; `CCOc1cc2nc(CCCCl)nc(Nc3cccc(-c4csc(C)n4)c3)c2cc1OCC`: 31%.

The next assay addresses T1, Epidermal growth factor receptor. Described as §1.
Details: not given
In general, pIC50 refers to −log10 of the IC50, conventionally taken in molar units. With `CCOc1cc2ncnc(Nc3cccc(-c4cocn4)c3)c2cc1OCC`, the pIC50 was 6.14.
On the same count and under the same terms, next, `C#Cc1cc(Nc2ncnc3cc(OC)c(OC)cc23)ccc1F`: 8.40; `CCOc1cc2nc(C)nc(Nc3cccc(-c4csc(C)n4)c3)c2cc1OCC`: 5.05.
The same measure, in the same setting: to `CCOc1cc2ncnc(Nc3cccc(-c4ccco4)c3)c2cc1OCC` belongs 8.52; to `CCOc1cc2ncnc(Nc3cccc(-c4cnc(C)o4)c3)c2cc1OCC`, less than 5.00; to `CCOc1cc2nc(CC)nc(Nc3cccc(-c4csc(C)n4)c3)c2cc1OCC`, 5.03.
Take `CCOc1cc2ncnc(Nc3cccc(-c4csc(N)n4)c3)c2cc1OCC`: the pIC50 was 6.25.
The compound `CCOc1cc2ncnc(Nc3cccc(-c4nccs4)c3)c2cc1OCC` showed a pIC50 of 8.70.
On the same count and under the same terms, to `CCOc1cc2ncnc(Nc3cccc(-c4cncnc4)c3)c2cc1OCC` belongs 5.96.
`CCOc1cc2ncnc(Nc3cccc(-c4cncs4)c3)c2cc1OCC` gave a pIC50 of 7.96.
Compound `CCOc1cc2ncnc(Nc3cccc(-c4cscn4)c3)c2cc1OCC` had a pIC50 of 7.74.
Still for that read-out and setting: next, `CCOc1cc2ncnc(Nc3cccc(-c4cc[nH]n4)c3)c2cc1OCC`: 7.96.
For `CCOc1cc2ncnc(Nc3cccc(-c4nc[nH]n4)c3)c2cc1OCC`, the pIC50 is 6.41.

Target in the next assay: not listed separately
Kind of assay: Inhibition of human recombinant wild type fructose-1,6-bisphosphatase (F16BP).
Details: not given
Turning to `CCOc1cc2nc(CCl)nc(Nc3cccc(-c4csc(C)n4)c3)c2cc1OCC`, the pIC50 is 6.06.
Same read-out and setting: next, `CCOc1cc2ncnc(Nc3cccc(C(C)=O)c3)c2cc1OCC`: less than 5.00; `CCOc1cc2ncnc(Nc3ccc(F)c(-c4csc(C)n4)c3)c2cc1OCC`: 6.21; `CCOc1cc2ncnc(Nc3cccc(-c4csc(NN)n4)c3)c2cc1OCC`: 5.35.
Regarding `CCOc1cc2ncnc(Nc3cccc(C(=O)CBr)c3)c2cc1OCC`, the pIC50 is less than 5.00.
Still for that read-out and setting: to `CCOc1cc2nc(Cc3ccccc3)nc(Nc3cccc(-c4csc(C)n4)c3)c2cc1OCC` belongs less than 5.00; to `CCOc1cc2ncnc(Nc3ccc(F)c(-c4csc(C)n4)c3F)c2cc1OCC`, less than 5.00; to `CCOc1cc2nc(Cl)nc(Nc3cccc(-c4csc(C)n4)c3)c2cc1OCC`, 5.59.
The same measure, in the same setting: to `CCOc1cc2ncnc(Nc3cccc(-c4cocn4)c3)c2cc1OCC` belongs 5.44; to `CCOc1cc2ncnc(Nc3cccc(-c4ccccn4)c3)c2cc1OCC`, 6.41.
Consider `CCOc1cc2ncnc(Nc3cc(-c4csc(C)n4)ccc3CC)c2cc1OCC`, for which the pIC50 is 5.68.
The same measure, in the same setting: to `CCOc1cc2ncnc(Nc3cccc(-c4nc(C(N)=O)cs4)c3)c2cc1OCC` belongs 6.08; to `CCOc1cc2ncnc(Nc3cc(-c4csc(C)n4)ccc3OC)c2cc1OCC`, 6.00.
The same measure, in the same setting: to `CCOc1cc2ncnc(Nc3ccc(Cl)c(-c4csc(C)n4)c3)c2cc1OCC` belongs 5.28; to `CCNCc1nc(Nc2cccc(-c3csc(C)n3)c2)c2cc(OCC)c(OCC)cc2n1`, 5.22.
Still for that read-out and setting: to `COCCOc1cc2c(Nc3cccc(-c4csc(C)n4)c3)ncnc2cc1OC` belongs less than 5.00.
Take `CCOc1cc2ncnc(Nc3cc(-c4csc(C)n4)cc(C(F)(F)F)c3)c2cc1OCC`: the pIC50 is less than 5.00.
Turning to `CCCc1nc(-c2cccc(Nc3ncnc4cc(OCC)c(OCC)cc34)c2)cs1`, the pIC50 is less than 5.00.
The same measure, in the same setting: next, `CCC(C)Oc1cc2ncnc(Nc3cccc(-c4csc(C)n4)c3)c2cc1OC` (centres undefined): 5.89; `C#Cc1cc(Nc2ncnc3cc(OC)c(OC)cc23)ccc1F`: 6.60.
The same measure, in the same setting: to `CCOc1cc2nc(CCCl)nc(Nc3cccc(-c4csc(C)n4)c3)c2cc1OCC` belongs 6.00.
With `CCCc1nc(Nc2cccc(-c3csc(C)n3)c2)c2cc(OCC)c(OCC)cc2n1`, the pIC50 was 5.85.
In the case of `CCCOc1cc2ncnc(Nc3cccc(-c4csc(C)n4)c3)c2cc1OC`, the pIC50 was 5.25.
In the case of `Cc1nc(-c2cccc(Nc3ncnc4cc5c(cc34)OCCO5)c2)cs1`, the pIC50 is less than 5.00.
On to `CCOc1cc2ncnc(Nc3cccc(-c4ccc(C)cc4)c3)c2cc1OCC`, for which the pIC50 is less than 5.00.
`COCCOc1cc2ncnc(Nc3cccc(-c4csc(C)n4)c3)c2cc1OC`: the pIC50 is less than 5.00.
Same read-out and setting: next, `CCOc1cc2nc(Cn3ccnc3)nc(Nc3cccc(-c4csc(C)n4)c3)c2cc1OCC`: 6.11; `CCOc1cc2ncnc(Nc3cccc(-c4ccccc4C)c3)c2cc1OCC`: less than 5.00.
Same read-out and setting: to `CCOc1nc(-c2cccc(Nc3ncnc4cc(OCC)c(OCC)cc34)c2)cs1` belongs 5.21; to `CCOc1cc2nc(CN(C)C)nc(Nc3cccc(-c4csc(C)n4)c3)c2cc1OCC`, 5.70; to `CCOc1cc2nc(CCCCl)nc(Nc3cccc(-c4csc(C)n4)c3)c2cc1OCC`, 5.39.
The same measure, in the same setting: to `CCOc1cc2nc(CC(=O)O)nc(Nc3cccc(-c4csc(C)n4)c3)c2cc1OCC` belongs 6.02.
As to `CCOc1cc2nc(CC(C)C)nc(Nc3cccc(Br)c3)c2cc1OCC`, the pIC50 was less than 5.00.
On the same count and under the same terms, next, `CCOc1cc2ncnc(Nc3cccc(-c4csc(COC)n4)c3)c2cc1OCC`: 5.14; `Cc1nc(-c2cccc(Nc3ncnc4ccccc34)c2)cs1`: less than 5.00; `CCOc1cc2nc(CCN)nc(Nc3cccc(-c4csc(C)n4)c3)c2cc1OCC`: 6.66.
Regarding `CCOc1cc2nc(CS(C)(=O)=O)nc(Nc3cccc(Br)c3)c2cc1OCC`, the pIC50 is less than 5.00.
Still for that read-out and setting: next, `CCOc1cc2ncnc(Nc3cc(-c4csc(C)n4)ccc3Cl)c2cc1OCC`: 5.77.
With `CCOc1cc2c(Nc3cccc(-c4csc(C)n4)c3)ncnc2cc1OC(C)C`, the pIC50 was 6.38.
Still for that read-out and setting: to `COc1cc2ncnc(Nc3cccc(-c4csc(C)n4)c3)c2cc1OC(C)C` belongs less than 5.00.
Consider `CCOc1cc2nc(C)nc(Nc3cccc(-c4csc(C)n4)c3)c2cc1OCC`, for which the pIC50 was 6.00.
The same measure, in the same setting: to `CCOc1cc2c(Nc3cccc(-c4csc(C)n4)c3)ncnc2c(OCC)c1OCC` belongs less than 5.00; to `CCOc1cc2ncnc(Nc3cccc(-c4csc(C5CC5)n4)c3)c2cc1OCC`, 6.08.
Same read-out and setting: to `CCOc1cc2nc(C(F)(F)F)nc(Nc3cccc(-c4csc(C)n4)c3)c2cc1OCC` belongs less than 5.00.
The same measure, in the same setting: next, `COc1cc2c(Nc3cccc(-c4csc(C)n4)c3)ncnc2cc1OC1CCCC1`: less than 5.00.
Turning to `CCOc1cc2ncnc(Nc3cc(-c4csc(C)n4)ccc3C)c2cc1OCC`, the pIC50 was 5.74.
Consider `CCOc1cc2ncnc(Nc3cccc(-c4csc(OC)n4)c3)c2cc1OCC`, for which the pIC50 is 6.11.
On to `CCOc1cc2nc(CN(C)C)nc(Nc3cccc(-c4csc(C(N)=O)n4)c3)c2cc1OCC`, for which the pIC50 is 5.62.
Same read-out and setting: next, `CCCOc1cc2ncnc(Nc3cccc(-c4csc(C)n4)c3)c2cc1OCC`: 6.00; `CCOc1cc2ncnc(Nc3cccc(-c4ccco4)c3)c2cc1OCC`: 5.85; `Cc1nc(-c2cccc(Nc3ncnc4cc5ccccc5cc34)c2)cs1`: less than 5.00.
Same read-out and setting: to `CCOc1cc2nc(CN)nc(Nc3cccc(-c4csc(C)n4)c3)c2cc1OCC` belongs 5.82; to `COc1cc2c(Nc3cccc(-c4csc(C)n4)c3)ncnc2cc1OC(C)C`, 5.64; to `CCOc1cc2ncnc(Nc3cccc(-c4nc(C)cs4)c3)c2cc1OCC`, 6.19.
Regarding `CCOc1cc2ncnc(Nc3cccc(-c4cnc(C)o4)c3)c2cc1OCC`, the negative logarithm of the IC50 (pIC50) was 5.40.
Consider `COc1cc2c(Nc3cccc(-c4csc(C)n4)c3)ncnc2cc1OCC(C)C`, for which the pIC50 is less than 5.00.
Same read-out and setting: next, `CCCCOc1cc2ncnc(Nc3cccc(-c4csc(C)n4)c3)c2cc1OC`: less than 5.00; `CCOc1ccc(-c2csc(C)n2)cc1Nc1ncnc2cc(OCC)c(OCC)cc12`: 5.74; `CCOc1cc2ncnc(Nc3cc(-c4csc(C)n4)ccc3F)c2cc1OCC`: 6.32.
On the same count and under the same terms, to `CCOc1cc2nc(CC)nc(Nc3cccc(-c4csc(C)n4)c3)c2cc1OCC` belongs 5.82; to `CCOc1cc2nc(C(C)C)nc(Nc3cccc(-c4csc(C)n4)c3)c2cc1OCC`, 5.30; to `COc1cc2ncnc(Nc3cccc(-c4csc(C)n4)c3)c2cc1OC`, 5.36.
Same read-out and setting: next, `CCOc1cc2ncnc(Nc3cccc(-c4csc(N)n4)c3)c2cc1OCC`: 5.46; `CCOc1cc2ncnc(Nc3cccc(-c4csc(Cc5ccccc5)n4)c3)c2cc1OCC`: less than 5.00; `CCOc1cc2ncnc(Nc3cc(-c4csc(C)n4)c(F)cc3F)c2cc1OCC`: less than 5.00.
For `CCOc1cc2ncnc(Nc3cccc(-c4ccccc4)c3)c2cc1OCC`, the pIC50 is less than 5.00.
Still for that read-out and setting: to `CCOc1cc2ncnc(Nc3cccc(-c4cccc(C)c4)c3)c2cc1OCC` belongs less than 5.00.
On the same count and under the same terms, to `CCOc1cc2ncnc(Nc3cccc(-c4nccs4)c3)c2cc1OCC` belongs 6.42; to `CCOc1cc2ncnc(Nc3cccc(-c4cncnc4)c3)c2cc1OCC`, 5.92; to `CCOc1cc2nc(CS(C)(=O)=O)nc(Nc3cccc(-c4csc(C)n4)c3)c2cc1OCC`, 5.68.
On to `CCOc1cc2ncnc(Nc3cccc(-c4cccnc4)c3)c2cc1OCC`, for which the pIC50 is 5.85.
Still for that read-out and setting: to `CCOc1cc2ncnc(Nc3cccc(-c4coc(C)n4)c3)c2cc1OCC` belongs 6.30; to `CCOc1cc2ncnc(Nc3cccc(-c4csc(C)n4)c3)c2cc1OC`, 5.47.
In the case of `CCOc1cc2ncnc(Nc3cccc(-c4cncs4)c3)c2cc1OCC`, the pIC50 is 6.01.
On to `CCOc1cc2nc(COC)nc(Nc3cccc(-c4csc(C)n4)c3)c2cc1OCC`, for which the pIC50 was 5.85.
Same read-out and setting: to `CCCCOc1cc2c(Nc3cccc(-c4csc(C)n4)c3)ncnc2cc1OC` belongs less than 5.00; to `CCOc1cc2nc(CN3CCCC3)nc(Nc3cccc(-c4csc(C)n4)c3)c2cc1OCC`, 5.21.
`CCOc1cc2ncnc(Nc3cccc(-c4cscn4)c3)c2cc1OCC`: the negative logarithm of the IC50 (pIC50) was 6.41.
Same read-out and setting: next, `CCOc1cc2c(Nc3cccc(-c4csc(C)n4)c3)ncnc2cc1OC`: 5.92; `CCOc1cc2nc(CCl)nc(Nc3cccc(Br)c3)c2cc1OCC`: less than 5.00.
As for `CCOc1cc2ncnc(Nc3cccc(-c4csc(N(C)C)n4)c3)c2cc1OCC`, the pIC50 was 5.10.
On the same count and under the same terms, to `CCOc1cc2ncnc(Nc3cccc(-c4csc(-c5ccccc5)n4)c3)c2cc1OCC` belongs less than 5.00.
In the case of `CCOc1cc2ncnc(Nc3cccc(-c4csc(NC)n4)c3)c2cc1OCC`, the pIC50 was 6.10.
As for `CCOc1cc2nc(CC(C)C)nc(Nc3cccc(-c4csc(C)n4)c3)c2cc1OCC`, the pIC50 was 5.77.
Still for that read-out and setting: to `CCOc1cc2ncnc(Nc3cc(-c4csc(C)n4)ccc3Br)c2cc1OCC` belongs less than 5.00.
For `CCOc1cc2ncnc(Nc3cccc(-c4csc(C(=O)O)n4)c3)c2cc1OCC`, the pIC50 is less than 5.00.
Consider `CCOc1cc2ncnc(Nc3cccc(-c4cc[nH]n4)c3)c2cc1OCC`, for which the pIC50 is 6.14.
The same measure, in the same setting: to `CCOc1cc2ncnc(Nc3cccc(-c4nc[nH]n4)c3)c2cc1OCC` belongs 6.19.
